How the values were obtained:
[1] = target: T1, rat histamine H3 receptor (Rattus norvegicus, UniProt Q9QYN8); experiment: Rat H3 radioligand binding ([3H]-N-alpha-methylhistamine, SPA); details: membranes of CHO-A3 cells expressing rat H3; [3H]-N-alpha-methylhistamine; read-out: Rat H3 Ki
T1 construct: encoding the entire 445-amino-acid rat histamine H3 receptor; expressed in transfected cells
In short: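 Membranes from CHO-A3 cells stably expressing full-length rat H3 receptor (445 aa) incubated with ~1 nM [3H]-N-alpha-methylhistamine and compound (0.01 nM–30 μM) in 50 mM Tris HCl pH 7.4, 5 mM MgCl2, 0.1% BSA, 4 h, room temperature; SPA bead read-out. Non-specific binding defined with 10 μM clobenpropit.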

[2] = target: T2, human H3 receptor (Homo sapiens, UniProt Q9Y5N1); experiment: Human H3 radioligand binding ([3H]-N-alpha-methylhistamine, SPA); details: membranes of CHO cells expressing human H3
T2 construct: expressed in transfected cells
In short: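 Membranes from H3-expressing cells (10 μg protein/well) in 50 mM Tris HCl pH 7.4, 5 mM MgCl2, 0.1% BSA with ~1 nM [3H]-N-alpha-methylhistamine and compound (0.01 nM–30 μM), SPA beads, 4 h, room temperature, dark. Non-specific binding defined with 10 μM clobenpropit; bound radioligand read by scintillation counting.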

T2 sequence (Q9Y5N1 whole entry): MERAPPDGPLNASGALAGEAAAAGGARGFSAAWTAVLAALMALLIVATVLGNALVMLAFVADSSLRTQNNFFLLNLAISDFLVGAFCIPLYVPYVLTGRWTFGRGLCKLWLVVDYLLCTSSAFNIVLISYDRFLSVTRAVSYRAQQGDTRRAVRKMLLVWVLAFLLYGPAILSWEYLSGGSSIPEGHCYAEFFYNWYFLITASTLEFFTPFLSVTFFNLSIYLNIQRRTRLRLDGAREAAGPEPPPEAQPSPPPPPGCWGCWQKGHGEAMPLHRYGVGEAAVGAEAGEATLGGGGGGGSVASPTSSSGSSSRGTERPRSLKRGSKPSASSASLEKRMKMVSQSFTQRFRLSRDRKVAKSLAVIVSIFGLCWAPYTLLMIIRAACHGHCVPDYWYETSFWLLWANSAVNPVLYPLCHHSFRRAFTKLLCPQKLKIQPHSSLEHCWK
T1 sequence (Q9QYN8 whole entry): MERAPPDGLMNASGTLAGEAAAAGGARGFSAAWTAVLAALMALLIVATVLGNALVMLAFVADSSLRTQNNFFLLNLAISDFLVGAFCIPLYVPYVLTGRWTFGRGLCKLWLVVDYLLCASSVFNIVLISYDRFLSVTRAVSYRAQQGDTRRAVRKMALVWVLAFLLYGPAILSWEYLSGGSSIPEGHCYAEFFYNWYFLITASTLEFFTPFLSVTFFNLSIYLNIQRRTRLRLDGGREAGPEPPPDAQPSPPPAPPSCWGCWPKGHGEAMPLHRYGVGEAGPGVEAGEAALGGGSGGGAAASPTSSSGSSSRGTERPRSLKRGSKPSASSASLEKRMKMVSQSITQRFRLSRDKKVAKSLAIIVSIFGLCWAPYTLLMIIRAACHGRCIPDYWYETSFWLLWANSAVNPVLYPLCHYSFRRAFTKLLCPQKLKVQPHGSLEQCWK

For `C[C@@H]1CCCN1CCCOc1ccc(C(=O)CN2CCN(C(=O)OCc3ccccc3)CC2)cc1` [Example 138, 4-(2-{4-[3-((R)-2-Methyl-pyrrolidin-1-yl)-propoxy]-phenyl}-2-oxo-ethyl)-piperazine-1-carboxylic acid benzyl ester], the Ki [1] was 0.1 to 100 nM, the melting point was 183 to 188 °C and the Ki [2] was 0.1 to 100 nM.
`C[C@@H]1CCCN1CCCOc1ccc(C(=O)CN2CCC(F)(F)C2)cc1F` [Example 139, 2-(3,3-Difluoro-pyrrolidin-1-yl)-1-{3-fluoro-4-[3-((R)-2-methyl-pyrrolidin-1-yl)-propoxy]-phenyl}-ethanone] gave a Ki [1] of 0.1 to 100 nM, a melting point of 206 °C and a Ki [2] of 0.1 to 100 nM.
Compound `C[C@@H]1CCCN1CCCOc1ccc(C(=O)CN2CCC(F)(F)CC2)cc1F` [Example 141, 2-(4,4-Difluoro-piperidin-1-yl)-1-{3-fluoro-4-[3-((R)-2-methyl-pyrrolidin-1-yl)-propoxy]-phenyl}-ethanone] has a Ki [1] of 101 to 500 nM, a melting point of 220 °C and a Ki [2] of 0.1 to 100 nM.
Compound `C[C@@H]1CCCN1CCCOc1ccc(C(=O)CN2CCN(c3ccccc3)CC2)cc1F` [Example 143, 1-{3-Fluoro-4-[3-((R)-2-methyl-pyrrolidin-1-yl)-propoxy]-phenyl}-2-(4-phenyl-piperazin-1-yl)-ethanone] has a Ki [1] of 0.1 to 100 nM, a melting point of 140 °C and a Ki [2] of 0.1 to 100 nM.
`CCC(=O)N1CCN(CC(=O)c2ccc(OCCCN3CCC[C@H]3C)cc2)CC1` [Example 144, 1-[4-(2-{4-[3-((R)-2-Methyl-pyrrolidin-1-yl)-propoxy]-phenyl}-2-oxo-ethyl)-piperazin-1-yl]-propan-1-one] gave a Ki [1] of 0.1 to 100 nM, a melting point of 65 to 70 °C and a Ki [2] of 0.1 to 100 nM.
With `C[C@@H]1CCCN1CCCOc1ccc(C(=O)CN2CCN(C(=O)c3ccc4ccccc4n3)CC2)cc1` [Example 145, 1-{4-[3-((R)-2-Methyl-pyrrolidin-1-yl)-propoxy]-phenyl}-2-[4-(quinoline-2-carbonyl)-piperazin-1-yl]-ethanone] the Ki [1] was 0.1 to 100 nM, the melting point was 115.4 to 120 °C and the Ki [2] was 0.1 to 100 nM.
`C[C@@H]1CCCN1CCCOc1ccc(C(=O)CN2CCN(C(=O)C3CCCCC3)CC2)cc1F` [Example 146, 2-(4-Cyclohexanecarbonyl-piperazin-1-yl)-1-{3-fluoro-4-[3-((R)-2-methyl-pyrrolidin-1-yl)-propoxy]-phenyl}-ethanone] showed a Ki [1] of 0.1 to 100 nM, a melting point of 232 °C and a Ki [2] of 0.1 to 100 nM.
`O=C(CN1CCC(F)(F)CC1)c1ccc(OCCCN2CCCCC2)c(Cl)c1` [Example 147, 1-[3-Chloro-4-(3-piperidin-1-yl-propoxy)-phenyl]-2-(4,4-difluoro-piperidin-1-yl)-ethanone] gave a Ki [1] greater than 1000 nM, a melting point of 122 to 135 °C and a Ki [2] of 101 to 500 nM.
`Cc1cc(C(=O)CN2CCN(C(=O)C3CCCCC3)CC2)ccc1OCCCN1CCC[C@H]1C` [Example 148, 2-(4-Cyclohexanecarbonyl-piperazin-1-yl)-1-{3-methyl-4-[3-((R)-2-methyl-pyrrolidin-1-yl)-propoxy]-phenyl}-ethanone] gave a Ki [1] of 0.1 to 100 nM, a melting point of 161 to 166.5 °C and a Ki [2] of 0.1 to 100 nM.
`C[C@@H]1CCCN1CCCOc1ccc(C(=O)CN2CCN(C(=O)Oc3ccc(F)cc3)CC2)cc1` [Example 149, 4-(2-{4-[3-((R)-2-Methyl-pyrrolidin-1-yl)-propoxy]-phenyl}-2-oxo-ethyl)-piperazine-1-carboxylic acid 4-fluoro-phenyl ester] showed a Ki [1] of 0.1 to 100 nM, a melting point of 234 to 236 °C and a Ki [2] of 0.1 to 100 nM.
With `Cc1cc(C(=O)CN2CCNC(=O)C2)ccc1OCCCN1CCC[C@H]1C` [Example 150, 4-(2-{3-Methyl-4-[3-((R)-2-methyl-pyrrolidin-1-yl)-propoxy]-phenyl}-2-oxo-ethyl)-piperazin-2-one] the Ki [1] was 101 to 500 nM, the melting point was 79 to 85 °C and the Ki [2] was 0.1 to 100 nM.
`C[C@@H]1CCCN1CCCOc1ccc(C(=O)CN2CCN(C(=O)c3ccccc3-c3ccccc3)CC2)cc1` [Example 152, 2-[4-(Biphenyl-2-carbonyl)-piperazin-1-yl]-1-{4-[3-((R)-2-methyl-pyrrolidin-1-yl)-propoxy]-phenyl}-ethanone] showed a Ki [1] of 0.1 to 100 nM, a melting point of 117 to 119 °C and a Ki [2] of 0.1 to 100 nM.
For `C[C@@H]1CCCN1CCCOc1cccc(C(=O)CN2CCN(C(=O)c3ccccc3)CC2)c1` [Example 153, 2-(4-Benzoyl-piperazin-1-yl)-1-{3-[3-((R)-2-methyl-pyrrolidin-1-yl)-propoxy]-phenyl}-ethanone], the Ki [1] was 501 to 1000 nM, the melting point was 125 to 135 °C and the Ki [2] was 101 to 500 nM.
In the case of `C[C@@H]1CCCN1CCCOc1cccc(C(=O)CN2CCC(F)(F)CC2)c1` [Example 154, 2-(4,4-Difluoro-piperidin-1-yl)-1-{3-[3-((R)-2-methyl-pyrrolidin-1-yl)-propoxy]-phenyl}-ethanone], the Ki [1] is reported as 101 to 500 nM, the melting point is reported as 110 to 120 °C and the Ki [2] is reported as 0.1 to 100 nM.
With `C[C@@H]1CCCN1CCCOc1ccc(C(=O)CN2CCN(C)C(=O)C2)cc1` [Example 155, 1-Methyl-4-(2-{4-[3-((R)-2-methyl-pyrrolidin-1-yl)-propoxy]-phenyl}-2-oxo-ethyl)-piperazin-2-one] the Ki [1] was 0.1 to 100 nM, the melting point was 115 to 120 °C and the Ki [2] was 0.1 to 100 nM.
With `CC(=O)N1CCN(CC(=O)c2ccc(OCCCN3CCC[C@H]3C)c(C)c2)CC1` [Example 156, 2-(4-Acetyl-piperazin-1-yl)-1-{3-methyl-4-[3-((R)-2-methyl-pyrrolidin-1-yl)-propoxy]-phenyl}-ethanone] the Ki [1] was 0.1 to 100 nM, the melting point was 120 to 126 °C and the Ki [2] was 0.1 to 100 nM.
Work on `C[C@@H]1CCCN1CCCOc1ccc(C(=O)CN2CCN(C(=O)c3cccc(Cl)c3Cl)CC2)cc1` [Example 157, 2-[4-(2,3-Dichloro-benzoyl)-piperazin-1-yl]-1-{4-[3-((R)-2-methyl-pyrrolidin-1-yl)-propoxy]-phenyl}-ethanone] yielded a Ki [1] of 0.1 to 100 nM, a melting point of 137 to 150 °C and a Ki [2] of 0.1 to 100 nM.

— patent publication US20140296212A1, “SUBSTITUTED PHENOXYPROPYLCYCLOAMINE DERIVATIVES AS HISTAMINE-3 (H3) RECEPTOR LIGANDS” (CEPHALON, INC., priority 2009, published 2014)
